# Test results as given in patent EP0336446A1, “Gene and gene product for the production of beta-lactam-compounds” (BIOCHEMIE GESELLSCHAFT M.B.H., priority 1988, dated 1989).
# “And” between values parts separate entries of the source, which are not always exact repeats. Equal values may be shown once.
# Assays:
# PAT [1] = molecular target: T1, PAT (Penicillium chrysogenum, UniProt P15802); experiment: Substrate specificity of purified PAT (fraction AL 278/2), specific enzyme activity by HPLC; type: biochemical, Penicillium chrysogenum P2/ATCC 48271
# T1 sequence (P15802 103-357 limits assumed): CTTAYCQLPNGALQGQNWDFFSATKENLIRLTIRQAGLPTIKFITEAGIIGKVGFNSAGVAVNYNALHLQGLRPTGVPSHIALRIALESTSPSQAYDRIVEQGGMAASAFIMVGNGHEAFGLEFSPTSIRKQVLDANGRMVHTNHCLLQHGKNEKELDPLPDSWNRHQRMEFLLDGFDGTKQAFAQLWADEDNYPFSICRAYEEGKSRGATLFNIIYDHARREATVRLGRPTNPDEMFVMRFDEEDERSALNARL
# T1 sequence (P15802 1-102 limits assumed): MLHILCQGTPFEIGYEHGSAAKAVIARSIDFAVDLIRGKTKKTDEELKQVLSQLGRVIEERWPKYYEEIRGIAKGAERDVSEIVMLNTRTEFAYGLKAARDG
# PAT [2] = molecular target: T1, PAT; experiment: Microbiological test of 6-APA-PaCoA acyltransferase activity (acylation of 6-APA with PaCoA to Penicillin V), indicator strain Micrococcus luteus ATCC 9341/BC 85; type: biochemical, Penicillium chrysogenum P2/ATCC 48271; settings: for 6-APA-PaCoA Transacylierungsaktivität (mm HH Ø): Stabilisierung, 5% Sorbit / 1 mM PMSF / 1% BSA / 10% Glycerin / 5% Mannit / 100 µg 6-APA/ml
# [3] = labelled substance = Acylakzeptor, Acyldonator PaCoA
molecule,measurement,setting,value
7-Glutaryl-APA,mittels HPLC bestimmte spezifische Enzymaktivität (mU/mg Protein) A1 278/2,"PAT [1]; labelled substance = Acyldonator, Acylakzeptor H₂O, Produkt 6-APA",106 mU/mg Protein
"CC1(C)S[C@@H]2[C@H](N)C(=O)N2[C@H]1C(=O)O [6-APA, 6-Aminopenicillansäure]",mittels HPLC bestimmte spezifische Enzymaktivität (mU/mg Protein) A1 278/2,PAT [1]; [3],393 mU/mg Protein
same,mittels HPLC bestimmte spezifische Enzymaktivität (mU/mg Protein) A1 278/2,"PAT [1]; labelled substance = Acylakzeptor, Acyldonator PeCoA",329 mU/mg Protein
same,Als Vergleich Transacylierung 6-APA + PaCoA → Penicillin V,PAT [2],17.0 mm and 23.2 mm and 26.9 mm and 25.9 mm
CC(=O)OCC1=C(C(=O)O)N2C(=O)[C@@H](N)[C@H]2SC1 [7-ACA],mittels HPLC bestimmte spezifische Enzymaktivität (mU/mg Protein) A1 278/2,PAT [1]; [3],0 mU/mg Protein
"CC1=C(C(=O)O)N2C(=O)[C@@H](N)[C@H]2SC1 [7-ADCA, 7-Amino-3-desacetoxycephalosporansäure]",mittels HPLC bestimmte spezifische Enzymaktivität (mU/mg Protein) A1 278/2,PAT [1]; [3],49 mU/mg Protein
CC(=O)OCC1=C(C(=O)O)N2C(=O)[C@@H](NC(=O)CCC[C@@H](N)C(=O)O)[C@H]2SC1 [Cephalosporin C],mittels HPLC bestimmte spezifische Enzymaktivität (mU/mg Protein) A1 278/2,PAT [1]; [3],0 mU/mg Protein
OCC(O)CO [Glycerin],6-APA-PaCoA Transacylierungsaktivität (mm HH Ø),"PAT [2]; 24 h bei +4°C, reaction 30', control ohne Zusatz Spur",11.5 mm
same,6-APA-PaCoA Transacylierungsaktivität (mm HH Ø),"PAT [2]; 24 h bei +4°C, reaction sofort, control ohne Zusatz 0",0 mm
same,6-APA-PaCoA Transacylierungsaktivität (mm HH Ø),"PAT [2]; 24 h bei -20°C, reaction 30', control ohne Zusatz 38",38 mm
same,6-APA-PaCoA Transacylierungsaktivität (mm HH Ø),"PAT [2]; 24 h bei -20°C, reaction sofort, control ohne Zusatz 15.2",15.2 mm
same,6-APA-PaCoA Transacylierungsaktivität (mm HH Ø),"PAT [2]; Testung sofort, reaction 30', control ohne Zusatz 33.4",33.1 mm
same,6-APA-PaCoA Transacylierungsaktivität (mm HH Ø),"PAT [2]; Testung sofort, reaction sofort, control ohne Zusatz 21.5",22.0 mm
